Results on 20 compounds are retold here after ChEMBL document CHEMBL5214881, “Squaric acid analogues in medicinal chemistry” (Eur J Med Chem, 2021).

In one series the test system is Urinary bladder. The experiment in a line: Inhibition of KCL-induced contraction in rat urinary bladder. The series is classed as functional, tissue-based. As to conditions: Urinary bladder smooth muscle.
Series [1] has as its target T1, C-X-C chemokine receptor type 1 (Homo sapiens, UniProt P25024).
T1 sequence (P25024 whole entry): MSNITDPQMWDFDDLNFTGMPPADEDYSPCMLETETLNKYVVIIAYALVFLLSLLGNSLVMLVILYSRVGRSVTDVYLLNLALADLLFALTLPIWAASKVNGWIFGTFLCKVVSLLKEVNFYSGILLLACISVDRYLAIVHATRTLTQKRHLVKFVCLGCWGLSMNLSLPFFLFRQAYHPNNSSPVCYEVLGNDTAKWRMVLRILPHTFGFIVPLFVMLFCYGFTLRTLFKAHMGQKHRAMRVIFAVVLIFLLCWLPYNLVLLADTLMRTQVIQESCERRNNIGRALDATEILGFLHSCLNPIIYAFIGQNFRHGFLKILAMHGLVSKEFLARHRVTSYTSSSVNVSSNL
The experiment in a line: Binding affinity to human CXCR1 assessed as dissociation constant incubated for 6 to 24 hrs by radioligand binding assay.

The target in series [2] is T2, C-X-C chemokine receptor type 2 (Homo sapiens, UniProt P25025).
T2 sequence (P25025 whole entry): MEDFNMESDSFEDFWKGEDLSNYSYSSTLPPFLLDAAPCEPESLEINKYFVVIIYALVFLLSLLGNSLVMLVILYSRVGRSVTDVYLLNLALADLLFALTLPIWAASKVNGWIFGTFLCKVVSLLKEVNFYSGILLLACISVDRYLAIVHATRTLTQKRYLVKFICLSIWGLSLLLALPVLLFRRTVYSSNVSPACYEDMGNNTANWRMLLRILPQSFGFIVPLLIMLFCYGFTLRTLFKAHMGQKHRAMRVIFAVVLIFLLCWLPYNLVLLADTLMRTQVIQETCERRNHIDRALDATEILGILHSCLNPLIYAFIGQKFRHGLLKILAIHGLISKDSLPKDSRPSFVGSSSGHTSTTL
The experiment in a line: Binding affinity to human CXCR2 assessed as dissociation constant incubated for 6 to 24 hrs by radioligand binding assay.

The target in series [3] is T1, C-X-C chemokine receptor type 1. The experiment in a line: Inhibition of human CXCR1.
The subject of the next series is Leishmania infantum. The experiment in a line: Antileishmanial activity against promastigote stage of Leishmania infantum MCAN/ES/2001/UCM-10 incubated for 72 hrs by Neubauer haemocytometric chamber analysis. The series is classed as functional, organism-based. To be noted: MCAN/ES/2001/UCM-10, 72 h.
The test system of the next series is Leishmania braziliensis. The experiment in a line: Antileishmanial activity against promastigote stage of Leishmania braziliensis MHOM/BR/1975/M2904 incubated for 72 hrs by Neubauer haemocytometric chamber analysis. The series is classed as functional, organism-based. To be noted: MHOM/BR/1975/M2904, 72 h.
The next series deals with Leishmania donovani. The experiment in a line: Antileishmanial activity against promastigote stage of Leishmania donovani MHOM/PE/84/LC26 incubated for 72 hrs by Neubauer haemocytometric chamber analysis. It counts as functional, organism-based. To be noted: MHOM/PE/84/LC26, 72 h.
For another series, the system named is HeLa. The experiment in a line: Cytotoxicity against human HeLa cells assessed as reduction in cell viability incubated for 24 hrs by MTT assay. It counts as functional, cell-based.
For the next series, the target named is Acetylcholinesterase (Homo sapiens, UniProt P22303). The experiment in a line: Inhibition of human AchE by spectrophotometric analysis.
The target of another series is Cholinesterase (Homo sapiens, UniProt P06276). The experiment in a line: Inhibition of human BchE by spectrophotometric analysis.
Series [4] is described as follows: Inhibition of Yersinia pestis PTP.
The target in series [5] is T3, Type-2 angiotensin II receptor (Homo sapiens, UniProt P50052).
T3 sequence (P50052 whole entry): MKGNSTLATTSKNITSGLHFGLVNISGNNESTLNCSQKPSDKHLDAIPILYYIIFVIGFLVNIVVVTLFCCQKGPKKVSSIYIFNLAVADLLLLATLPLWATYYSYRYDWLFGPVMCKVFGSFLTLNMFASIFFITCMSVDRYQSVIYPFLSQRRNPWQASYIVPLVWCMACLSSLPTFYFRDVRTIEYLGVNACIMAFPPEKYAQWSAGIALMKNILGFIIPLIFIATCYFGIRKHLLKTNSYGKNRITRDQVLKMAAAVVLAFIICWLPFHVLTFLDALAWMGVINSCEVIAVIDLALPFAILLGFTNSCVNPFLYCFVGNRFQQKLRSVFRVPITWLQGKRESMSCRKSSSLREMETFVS
The experiment in a line: Inhibition of Angiotensin 2 binding to Angiotensin 2 receptor (unknown origin).

For the next series, the system named is Helicobacter pylori. The experiment in a line: Antibacterial activity against Helicobacter pylori assessed as bacterial growth inhibition. It counts as functional.
A further series deals with T4, Interstitial collagenase (Homo sapiens, UniProt P03956).
T4 sequence (P03956 whole entry): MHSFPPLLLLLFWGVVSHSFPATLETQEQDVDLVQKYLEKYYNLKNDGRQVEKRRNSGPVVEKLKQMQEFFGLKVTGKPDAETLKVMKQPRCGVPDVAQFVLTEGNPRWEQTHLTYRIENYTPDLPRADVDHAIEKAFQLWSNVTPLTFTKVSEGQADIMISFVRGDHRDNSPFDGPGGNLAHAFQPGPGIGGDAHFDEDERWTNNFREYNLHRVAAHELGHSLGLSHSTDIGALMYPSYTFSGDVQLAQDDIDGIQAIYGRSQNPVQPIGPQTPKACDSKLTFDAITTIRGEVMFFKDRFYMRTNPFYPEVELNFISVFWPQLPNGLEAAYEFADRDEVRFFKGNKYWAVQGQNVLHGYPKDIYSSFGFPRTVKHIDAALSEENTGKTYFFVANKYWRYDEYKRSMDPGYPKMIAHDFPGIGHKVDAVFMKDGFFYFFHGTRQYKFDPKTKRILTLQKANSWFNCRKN
The experiment in a line: Inhibition of MMP-1 (unknown origin) using DnpPro-Cha-Gly-Cys(Me)-His-Ala-Lys(Nma)-NH2 as substrate by fluorescence spectroscopy.

Series [6] in a line: Dissociation constant, pKa of the compound. The series is classed as physicochemical.
For series [7], the target named is Glutamate [NMDA] receptor. The experiment in a line: Binding affinity to NMDA receptor (unknown origin). The series is classed as protein-complex assay, Homo sapiens.
Series [8] can be described thus: Toxicity in Swiss albino mouse assessed as lethality pretreated for 30 mins followed by NMDA stimulation and measured after 30 mins. To be noted: in vivo, 1 h, time 60 min.
The target of series [9] is Glutamate [NMDA] receptor. The experiment in a line: Binding affinity to TCP-stimulated NMDA (unknown origin). The series is classed as protein-complex assay, Homo sapiens.

The structures appear in SMILES notation. In brackets after ≈: the same amount, converted by molar mass.

Sequence of Cholinesterase (P06276 whole entry): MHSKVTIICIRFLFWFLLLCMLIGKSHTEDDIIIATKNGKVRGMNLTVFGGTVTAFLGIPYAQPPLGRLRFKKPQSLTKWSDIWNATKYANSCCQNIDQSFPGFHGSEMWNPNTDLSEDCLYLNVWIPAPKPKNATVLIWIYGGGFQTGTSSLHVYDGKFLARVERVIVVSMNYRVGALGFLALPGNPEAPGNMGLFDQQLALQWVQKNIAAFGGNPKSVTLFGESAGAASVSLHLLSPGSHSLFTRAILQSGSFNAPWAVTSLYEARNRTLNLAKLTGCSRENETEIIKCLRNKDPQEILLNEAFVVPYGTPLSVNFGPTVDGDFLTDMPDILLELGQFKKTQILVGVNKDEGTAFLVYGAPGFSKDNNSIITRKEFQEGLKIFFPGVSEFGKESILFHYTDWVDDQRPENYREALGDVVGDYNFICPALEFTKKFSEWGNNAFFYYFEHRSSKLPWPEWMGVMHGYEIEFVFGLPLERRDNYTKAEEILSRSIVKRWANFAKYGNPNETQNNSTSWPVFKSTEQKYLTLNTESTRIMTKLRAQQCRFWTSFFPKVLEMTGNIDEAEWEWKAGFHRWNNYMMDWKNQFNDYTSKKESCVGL
Sequence of Acetylcholinesterase (P22303 whole entry): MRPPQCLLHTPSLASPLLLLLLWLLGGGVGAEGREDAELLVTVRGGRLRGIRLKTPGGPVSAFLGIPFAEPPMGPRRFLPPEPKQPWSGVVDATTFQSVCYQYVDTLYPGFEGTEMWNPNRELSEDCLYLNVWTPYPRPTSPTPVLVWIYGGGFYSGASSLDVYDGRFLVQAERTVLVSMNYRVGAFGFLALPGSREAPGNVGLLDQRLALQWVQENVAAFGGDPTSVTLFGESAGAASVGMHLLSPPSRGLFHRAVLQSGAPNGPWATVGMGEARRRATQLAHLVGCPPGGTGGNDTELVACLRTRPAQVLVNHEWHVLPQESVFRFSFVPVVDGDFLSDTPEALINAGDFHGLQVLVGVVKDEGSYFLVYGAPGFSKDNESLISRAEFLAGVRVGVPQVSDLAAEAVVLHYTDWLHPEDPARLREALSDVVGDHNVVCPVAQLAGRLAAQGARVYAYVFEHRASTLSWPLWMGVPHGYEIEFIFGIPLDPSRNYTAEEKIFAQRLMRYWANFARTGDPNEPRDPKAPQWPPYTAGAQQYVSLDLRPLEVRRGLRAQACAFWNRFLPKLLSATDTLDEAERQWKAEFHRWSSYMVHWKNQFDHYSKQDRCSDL

Compound `CCc1cc(C#N)ccc1Nc1c(N[C@H](C)C(C)(C)C)c(=O)c1=O` displayed an IC50 with Urinary bladder of 90 nM.
Take `CC[C@@H](Nc1c(Nc2cccc(C(=O)N(C)C)c2O)c(=O)c1=O)c1ccco1`: the values for the Kd in series [1] and in [2] were 3.9 nM and 0.049 nM, respectively.
In [3], `CCC(CC)Nc1c(Nc2cccc(C(=O)N(C)C)c2O)c(=O)c1=O` came in with an IC50 of 15 nM.
For the compound `O=c1c(Nc2ccccc2)c(Nc2ccc([N+](=O)[O-])cc2O)c1=O`, it took 36 nM to reach half-maximal inhibition in [3] (IC50).
On the same count and under the same terms, for `CC[C@@H](Nc1c(Nc2cccc(C(=O)N(C)C)c2O)c(=O)c1=O)c1ccccc1` the value was 6.8 nM.
Regarding `CCCCNc1c(N(C)CCCN(C)C)c(=O)c1=O`, the IC50 in the series with Leishmania infantum amounted to 18000 nM; in the series with Leishmania braziliensis, 17300 nM.
In the series on Leishmania donovani, `O=c1c(NCc2ccccc2)c(NC2CCN(Cc3ccccc3)CC2)c1=O` showed an IC50 of 17900 nM.
On to `COc1c(Nc2ccc3ccccc3c2-c2c(O)ccc3ccccc23)c(=O)c1=O`, for which, in the series with HeLa, the IC50 was found to be 46700 nM.
Turning to `O=c1c(NCCCCCCCc2c3c(nc4ccccc24)CCCC3)c(NCCCCCCCc2c3c(nc4ccccc24)CCCC3)c1=O`, the concentration for half-maximal inhibition (IC50) on Acetylcholinesterase came to 13 nM; at Cholinesterase, 21 nM.
As to `COc1c(Nc2ccc3c4c(cccc24)-c2ccccc2-3)c(=O)c1=O`, the IC50 in the series with HeLa is 880 nM.
Regarding `O=c1c(O)c(-c2ccc([N+](=O)[O-])cc2)c1=O`, half-maximal inhibition in series [4] (IC50) required 120000 nM.
`O=c1c(O)c(-c2ccccc2-c2ccc(CNc3cc(C(F)(F)F)cc4c3CCCC4)cc2)c1=O` had an IC50 in series [5] of 25 nM.
As to `O=c1c(NC/C=C\COc2cc(CN3CCCCC3)cs2)c(NCCF)c1=O`, in the series on Helicobacter pylori, the MIC was 1.56 µg/mL (≈ 3.83 µM).
In the case of `CC[C@H](C)[C@H](Nc1c(N(C)O)c(=S)c1=O)C(=O)N[C@@H](Cc1ccccc1)C(=O)NC`, the IC50 at Interstitial collagenase is 15000 nM.
With `O=c1c(NCCCCc2c3c(nc4cc(Cl)ccc24)CCCC3)c(NCCCCc2c3c(nc4ccc(Cl)cc24)CCCC3)c1=O`, the IC50 at Acetylcholinesterase was 2 nM; at Cholinesterase, 110 nM.
`Nc1nc2c(ncn2[C@@H]2O[C@@H]3CNc4c(c(=O)c4=O)N[C@H]3[C@H]2O)c(=O)[nH]1` returned a pKa in series [6] of 2.3.
In the series with Leishmania infantum, `CCCCCCCCCCCCCCC(C)Nc1c(NCC[N+](C)(C)C)c(=O)c1=O` (configuration not stated) came in with an IC50 of 16300 nM.
In [4], `O=c1c(O)c(-c2ccc3ccccc3c2)c1=O` gave an IC50 of 40000 nM.
In series [7], `Nc1c(NCCP(=O)(O)O)c(=O)c1=O` came in with an IC50 of 470 nM. Further, in [8], the ED50 stood at 29 mg/kg.
Turning to `O=c1c2c(c1=O)N(CCP(=O)(O)O)CCCN2` [PERZINFOTEL], the figures for the IC50 in series [7] and in [9] were 30 nM and 7600 nM, respectively. In addition, the ED50 in series [8] is 2.1 mg/kg.

As usually defined, the IC50 is the concentration that gives 50% inhibition. A word on the Kd: it is the constant that tells how readily two partners part at equilibrium. One may read the MIC as the smallest concentration in the dilution series that meets the test's criterion for growth inhibition. One may read the pKa as the negative logarithm of the acid dissociation constant. A lower pKa goes with a group that gives up its proton readily. By ED50 is commonly meant the dose at which the effect has come halfway, by size or by number of responders.
